Data on 31 compounds can be found in patent publication US8592456B2 (4SC Discovery GmbH, priority 2011, dated 2013).

This test relates to PBMC (T cell proliferation). As to the kind of experiment: T cell proliferation assay, PHA-stimulated human PBMC (BrdU ELISA). The class given is cell-based. The settings on record: human PBMC, 2 μg/ml PHA, 48 hours, BrdU; read-out: D: IC50 (Tcell proliferation). In a few lines: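 Healthy-donor human PBMC, Ficoll-isolated, seeded 1×10^5 cells/well in RPMI1640 with 10% dialyzed FCS, stimulated with 2 μg/ml PHA alongside test compound. Proliferation read after 48 hours by BrdU ELISA.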

Molecules are shown by their SMILES. pIC50: −log10 of the molar value.

For the compound `COC(=O)c1c(-c2c(F)cccc2Cl)noc1-c1cnn(-c2onc(-c3ccc(Cl)cc3)c2C(=O)OC)c1C(F)(F)F` [Example 131, methyl 3-(2-chloro-6-fluorophenyl)-5-{[1-(4-methoxycarbonyl-3-(4-chlorophenyl)isoxazol-5-yl)-5-trifluoromethyl-1H-pyrazol-4-yl]}-isoxazole-4-carboxylate], the pIC50 was 5.00 to 6.00. With `O=C(c1c(-c2c(F)cccc2Cl)noc1-c1cnn(-c2cccc(Cl)c2)c1C(F)(F)F)N1CCCO1` [Example 132, (3-(2-chloro-6-fluorophenyl)-5-(1-(3-chlorophenyl)-5-(trifluoromethyl)-1H-pyrazol-4-yl)isoxazol-4-yl)(isoxazolidin-2-yl)methanone], the pIC50 was 7.00 to 8.00. With `NNC(=O)c1c(-c2c(F)cccc2Cl)noc1-c1cnn(-c2cccc(F)c2)c1C(F)(F)F` [Example 133, 3-(2-chloro-6-fluorophenyl)-5-(1-(3-fluorophenyl)-5-(trifluoromethyl)-1H-pyrazol-4-yl)isoxazole-4-carbohydrazide] the figure was 5.00 to 6.00; with `NNC(=O)c1c(-c2cccc(F)c2)noc1-c1cnn(-c2cccc(F)c2)c1C(F)(F)F` [Example 134, 3-(3-fluorophenyl)-5-(1-(3-fluorophenyl)-5-(trifluoromethyl)-1H-pyrazol-4-yl)isoxazole-4-carbohydrazide], 5.00 to 6.00; with `CON(C)C(=O)c1c(-c2c(F)cccc2Cl)noc1-c1cnn(-c2cccc(F)c2)c1C(F)(F)F` [Example 135, 3-(2-chloro-6-fluorophenyl)-5-(1-(3-fluorophenyl)-5-(trifluoromethyl)-1H-pyrazol-4-yl)-N-methoxy-N-methylisoxazole-4-carboxamide], 6.00 to 7.00.

On to `CO/C(=N\c1c(-c2c(F)cccc2Cl)noc1-c1cnn(-c2cccc(F)c2)c1C(F)(F)F)C(F)(F)F` [Example 136, (Z)-methyl N-(3-(2-chloro-6-fluorophenyl)-5-(1-(3-fluorophenyl)-5-(trifluoromethyl)-1H-pyrazol-4-yl)isoxazol-4-yl)-2,2,2-trifluoroacetimidate], for which the pIC50 was 6.00 to 7.00.

In the case of `Fc1cccc(-n2ncc(-c3onc(-c4c(F)cccc4Cl)c3Br)c2C(F)(F)F)c1` [Example 137, 4-bromo-3-(2-chloro-6-fluorophenyl)-5-(1-(3-fluorophenyl)-5-(trifluoromethyl)-1H-pyrazol-4-yl)isoxazole], the pIC50 is 7.00 to 8.00. For the compound `COC(=O)Nc1c(-c2c(F)cccc2Cl)noc1-c1cnn(-c2cccc(F)c2)c1C(F)(F)F` [Example 138, methyl 3-(2-chloro-6-fluorophenyl)-5-[1-(3-fluorophenyl)-5-(trifluoromethyl)-1H-pyrazol-4-yl]isoxazol-4-ylcarbamate], the pIC50 was 6.00 to 7.00. With `CC(=O)Nc1c(-c2c(F)cccc2Cl)noc1-c1cnn(-c2cccc(F)c2)c1C(F)(F)F` [Example 139, N-(3-(2-chloro-6-fluorophenyl)-5-(1-(3-fluorophenyl)-5-(trifluoromethyl)-1H-pyrazol-4-yl)isoxazol-4-yl)acetamide] the figure was 5.00 to 6.00. `Fc1cccc(Cl)c1-c1noc(-c2cnn(-c3cccc(Cl)c3)c2C(F)(F)F)c1Br` [Example 140, 4-bromo-3-(2-chloro-6-fluorophenyl)-5-(1-(3-chlorophenyl)-5-(trifluoromethyl)-1H-pyrazol-4-yl)isoxazole]: the pIC50 was 7.00 to 8.00.

As to `Fc1cccc(Cl)c1-c1noc(-c2cnn(-c3ccccc3)c2C(F)(F)F)c1Br` [Example 145, 4-bromo-3-(2-chloro-6-fluorophenyl)-5-(1-phenyl-5-(trifluoromethyl)-1H-pyrazol-4-yl)isoxazole], the pIC50 was 7.00 to 8.00. With `CCOC(=O)c1c(-c2c(F)cccc2Cl)noc1-c1cnn(-c2ccccc2NC(C)=O)c1C(F)(F)F` [Example B-1] the figure was 5.00 to 6.00; with `CCOC(=O)c1c(-c2c(F)cccc2Cl)noc1-c1cnn(CCOC)c1C(F)(F)F` [Example B-2, ethyl 3-(2-chloro-6-fluorophenyl)-5-(1-(2-methoxyethyl)-5-(trifluoromethyl)-1H-pyrazol-4-yl)isoxazole-4-carboxylate], 5.00 to 6.00; with `CCOC(=O)c1c(-c2ccncc2F)noc1-c1cnn(-c2ccncc2)c1C(F)(F)F` [Example B-3, ethyl 3-(3-fluoropyridin-4-yl)-5-(1-(pyridin-4-yl)-5-(trifluoromethyl)-1H-pyrazol-4-yl)isoxazole-4-carboxylate], 6.00 to 7.00. With `CCOC(=O)c1c(-c2ccncc2F)noc1-c1cnn(-c2cccc(Cl)c2)c1C(F)(F)F` [Example B-4, ethyl 5-(1-(3-chlorophenyl)-5-(trifluoromethyl)-1H-pyrazol-4-yl)-3-(3-fluoropyridin-4-yl)isoxazole-4-carboxylate] the figure was 5.00 to 6.00.

In the case of `CCOC(=O)c1c(-c2c(Cl)cncc2Cl)noc1-c1cnn(-c2ccccn2)c1C(F)(F)F` [Example B-5, ethyl 3-(3,5-dichloropyridin-4-yl)-5-(1-(pyridin-2-yl)-5-(trifluoromethyl)-1H-pyrazol-4-yl)isoxazole-4-carboxylate], the pIC50 was 5.00 to 6.00.

`CCOC(=O)c1c(-c2ccncc2F)noc1-c1cnn(-c2cccc(NC(C)=O)c2)c1C(F)(F)F` [Example B-6, ethyl 5-(1-(3-acetamidophenyl)-5-(trifluoromethyl)-1H-pyrazol-4-yl)-3-(3-fluoropyridin-4-yl)isoxazole-4-carboxylate]: the pIC50 is 6.00 to 7.00.

Consider `CCOC(=O)c1c(-c2c(Cl)cncc2Cl)noc1-c1cnn(-c2cccc(Cl)c2)c1C(F)(F)F` [Example B-7, ethyl 5-(1-(3-chlorophenyl)-5-(trifluoromethyl)-1H-pyrazol-4-yl)-3-(3,5-dichloropyridin-4-yl)isoxazole-4-carboxylate], for which the pIC50 was 5.00 to 6.00. In the case of `CCOC(=O)c1c(-c2ccncc2F)noc1-c1cnn(-c2ccccn2)c1C(F)(F)F` [Example B-8, ethyl 3-(3-fluoropyridin-4-yl)-5-(1-(pyridin-2-yl)-5-(trifluoromethyl)-1H-pyrazol-4-yl)isoxazole-4-carboxylate] it was 5.00 to 6.00. With `CCOC(=O)c1c(-c2c(Cl)cncc2Cl)noc1-c1cnn(-c2ccccc2F)c1C(F)(F)F` [Example B-9, ethyl 3-(3,5-dichloropyridin-4-yl)-5-(1-(2-fluorophenyl)-5-(trifluoromethyl)-1H-pyrazol-4-yl)isoxazole-4-carboxylate] the figure was 7.00 to 8.00; with `CCOC(=O)c1c(-c2c(Cl)cncc2Cl)noc1-c1cnn(-c2ccncc2)c1C(F)(F)F` [Example B-10, ethyl 3-(3,5-dichloropyridin-4-yl)-5-(1-(pyridin-4-yl)-5-(trifluoromethyl)-1H-pyrazol-4-yl)isoxazole-4-carboxylate], 6.00 to 7.00; with `CCOC(=O)c1c(-c2c(Cl)cncc2Cl)noc1-c1cnn(-c2cccc(NC(C)=O)c2)c1C(F)(F)F` [Example B-11, ethyl 5-(1-(3-acetamidophenyl)-5-(trifluoromethyl)-1H-pyrazol-4-yl)-3-(3,5-dichloropyridin-4-yl)isoxazole-4-carboxylate], 6.00 to 7.00. In the case of `CCOC(=O)c1c(-c2c(Cl)cncc2Cl)noc1-c1cnn(-c2cccnc2)c1C(F)(F)F` [Example B-12, ethyl 3-(3,5-dichloropyridin-4-yl)-5-(1-(pyridin-3-yl)-5-(trifluoromethyl)-1H-pyrazol-4-yl)isoxazole-4-carboxylate] it was 6.00 to 7.00. As to `CCOC(=O)c1c(-c2ccncc2F)noc1-c1cnn(-c2ccccc2Cl)c1C(F)(F)F` [Example B-13, ethyl 5-(1-(2-chlorophenyl)-5-(trifluoromethyl)-1H-pyrazol-4-yl)-3-(3-fluoropyridin-4-yl)isoxazole-4-carboxylate], the pIC50 was 7.00 to 8.00. Take `CCOC(=O)c1c(-c2ccncc2F)noc1-c1cnn(-c2cccc(F)c2)c1C(F)(F)F` [Example B-14, ethyl 5-(1-(3-fluorophenyl)-5-(trifluoromethyl)-1H-pyrazol-4-yl)-3-(3-fluoropyridin-4-yl)isoxazole-4-carboxylate]: the pIC50 is 5.00 to 6.00. Consider `CCOC(=O)c1c(-c2ccncc2F)noc1-c1cnn(-c2ccccc2F)c1C(F)(F)F` [Example B-15, ethyl 5-(1-(2-fluorophenyl)-5-(trifluoromethyl)-1H-pyrazol-4-yl)-3-(3-fluoropyridin-4-yl)isoxazole-4-carboxylate], for which the pIC50 was 6.00 to 7.00. For the compound `CCOC(=O)c1c(-c2c(Cl)cncc2Cl)noc1-c1cnn(-c2ccccc2Cl)c1C(F)(F)F` [Example B-16, ethyl 5-(1-(2-chlorophenyl)-5-(trifluoromethyl)-1H-pyrazol-4-yl)-3-(3,5-dichloropyridin-4-yl)isoxazole-4-carboxylate], the pIC50 was 5.00 to 6.00. As to `CCOC(=O)c1c(-c2ccncc2F)noc1-c1cnn(-c2cccnc2)c1C(F)(F)F` [Example B-17, ethyl 3-(3-fluoropyridin-4-yl)-5-(1-(pyridin-3-yl)-5-(trifluoromethyl)-1H-pyrazol-4-yl)isoxazole-4-carboxylate], the pIC50 was 5.00 to 6.00. In the case of `COC(=O)c1c(-c2c(F)cccc2Cl)noc1-c1cnn(-c2ccccc2Cl)c1C(F)(F)F` [Example B-20, methyl 3-(2-chloro-6-fluorophenyl)-5-(1-(2-chlorophenyl)-5-(trifluoromethyl)-1H-pyrazol-4-yl)isoxazole-4-carboxylate] it was 5.00 to 6.00; in that of `COC(=O)c1c(-c2c(F)cccc2Cl)noc1-c1cnn(-c2cccc(F)c2)c1` [Example B-21, methyl 3-(2-chloro-6-fluorophenyl)-5-(1-(3-fluorophenyl)-1H-pyrazol-4-yl)isoxazole-4-carboxylate], 6.00 to 7.00. Consider `O=C(Nc1c(-c2c(F)cccc2Cl)noc1-c1cnn(-c2cccc(F)c2)c1C(F)(F)F)C(F)(F)F` [Example B-22, N-(3-(2-chloro-6-fluorophenyl)-5-[1-(3-fluorophenyl)-5-(trifluoromethyl)-1H-pyrazol-4-yl]-1,2-oxazol-4-yl)-2,2,2-trifluoroacetamide], for which the pIC50 is 5.00 to 6.00.
